Publication PMC11181328 (Journal of Medicinal Chemistry, 2024)

Tests used:
in vitro [1] = conditions: human, s9
male Swiss Webster mice [2] = experiment: Warm-water tail immersion assay, time course study; format: in vivo, mouse; conditions: for onset of antinociceptive effects: s.c.
male Swiss Webster mice [3] = experiment: Locomotor activity assay; format: in vivo, mouse; conditions: s.c., 30 min session; for average speed by time versus vehicle: Figure 6F–H
Experimental: This hypolocomotion could result in false positives in assays of evoked antinociception such as WWTI.[115] Thus, a locomotor activity assay was utilized to assess this end point in accordance with previous studies.[28] In brief, the day prior to testing, mice were placed in the open field chamber for acclimation. On the test day, they were injected with compounds 21, 23, NLF, or vehicle and immediately placed back into the open field chamber. Photo beam breaks then recorded the mouse’s locomotion over a 30 min test period.
Six open field activity chambers (Med Associates, St. Albans, VT) were used in the locomotor activity study. Each chamber is located inside a sound-attenuating cubicle (Med Associates) and is equipped with a ventilation system. The interior of the chamber consists of a 27 × 27 cm plexiglass enclosure wired with photobeam cells and connected to a computer console that monitors the activity of the animal.
The day before the experiment, mice were acclimated to the activity chambers for a period of 30 min. On the day of the experiment, mice were administered vehicle or test compound s.c., placed into the activity chambers immediately and activity was monitored and recorded for a period of 30 min.
The primary dependent measures are total (1) distance traveled (cm), (2) ambulatory counts, (3) vertical counts, and (4) average speed (cm/s) within the 30 min session. Data are shown as mean ± SEM. Data were compared using one-way or two-way ANOVA as appropriate and a significant ANOVA was followed by a Dunnet’s post hoc test as appropriate. Statistical significance was defined as p < 0.05.

MOR [4] = target: T1, MOR (Mus musculus, UniProt P42866); experiment: [35S]-GTPγS functional assay, MOR; format: biochemical; set-up: expressed in transfected cells; membrane homogenate; conditions: for EC50: mMOR-CHO membranes; for [35S]-GTPγS functional activity MOR Emax (%): percent of DAMGO full agonist control; for Emax: read-out: [35S]-GTPγS functional activity MOR Emax (%)
DOR [5] = target: T2, DOR (Homo sapiens, UniProt P41143); experiment: Competitive radioligand binding assay, DOR
T2 construct: expressed in transfected cells; membrane homogenate

male Swiss Webster mice [6] = experiment: Warm-water tail immersion assay, receptor selectivity study; format: in vivo, mouse; conditions: for antagonism of antinociceptive effects by nor-BNI (KOR antagonist) pretreatment: 10 mg/kg nor-BNI s.c. 24 h prior to 0.1 mg/kg test compound s.c. (23 also 0.05 mg/kg); for antagonism of antinociceptive effects by β-FNA (MOR antagonist) pretreatment: 10 mg/kg β-FNA s.c. 24 h prior to 0.1 mg/kg test compound s.c.; for antagonism of antinociceptive effects by NTI (DOR antagonist) pretreatment: 15 mg/kg NTI s.c. 30 min prior to 0.1 mg/kg test compound s.c. (23 also 0.05 mg/kg); for antagonism of antinociceptive effects by NTI and nor-BNI pretreatment together: nor-BNI 10 mg/kg + NTI 15 mg/kg s.c. prior to test compound
in vitro [7] = conditions: Sprague-Dawley, rat, s9
[8] = test system: male and female Sprague–Dawley rats; conditions: intravenous, FR5 schedule of reinforcement, 2 h sessions
KOR [9] = target: T3, KOR (Mus musculus, UniProt P33534); experiment: Competitive radioligand binding assay, KOR; conditions: for radioligand binding affinity (Ki, nM) KOR: [3H]diprenorphine, mKOR-CHO membranes; for selectivity ratio δ/κ / selectivity ratio μ/κ: ratio of Ki values
T3 construct: expressed in transfected cells; membrane homogenate

MOR [10] = target: T1, MOR; experiment: Competitive radioligand binding assay, MOR; set-up: expressed in transfected cells; membrane homogenate; conditions: for radioligand binding affinity (Ki, nM) MOR: [3H]naloxone, mMOR-CHO membranes
male Swiss Webster mice [11] = experiment: Warm-water tail immersion assay, agonism (single dose screen and potency); format: in vivo, mouse; conditions: for ED50: Mus musculus, sc, read-out: potency ED50 [95% CI] mg/kg, 20 min prior to tail withdrawal latency measurement, male Swiss Webster mice; for ED50 / ED75: s.c.; for ED75: warm-water tail immersion; for percent MPE: single dose 10 mg/kg s.c., withdrawal latency 20 min after administration
DOR [12] = target: T2, DOR; experiment: [35S]-GTPγS functional assay, DOR; format: biochemical; conditions: for EC50: hDOR-CHO membranes; for Emax: percent of SNC80 full agonist control
KOR [13] = target: T3, KOR; experiment: [35S]-GTPγS functional assay, KOR; format: biochemical; conditions: for EC50: mKOR-CHO membranes; for Emax: percent of U50,488 full agonist control
[14] = warm water tail immersion studies (Figure 3)

Row | Structure (SMILES) | half-life (in vitro [1]) | microsomal CLint (in vitro [1]) | antinociceptive effects significant until (time postinjection) (male Swiss Webster mice [2]; 0.1 mg/kg s.c.) | onset of antinociceptive effects (male Swiss Webster mice [2]) | duration of action (male Swiss Webster mice [2]; [14]) | locomotor activity (male Swiss Webster mice [3]) | average speed by time versus vehicle (male Swiss Webster mice [3]) | EC50 (MOR [4]) | [35S]-GTPγS functional activity MOR Emax (%) (MOR [4]) | Emax (MOR [4]) | Ki (DOR [5]) | antagonism of antinociceptive effects by nor-BNI (KOR antagonist) pretreatment (male Swiss Webster mice [6]) | antagonism of antinociceptive effects by β-FNA (MOR antagonist) pretreatment (male Swiss Webster mice [6]) | antagonism of antinociceptive effects by NTI (DOR antagonist) pretreatment (male Swiss Webster mice [6]) | antagonism of antinociceptive effects by NTI and nor-BNI pretreatment together (male Swiss Webster mice [6]) | reinforcing effect (number of infusions earned versus saline) [8] | Ki (KOR [9]) | radioligand binding affinity (Ki, nM) KOR (KOR [9]) | selectivity ratio δ/κ (KOR [9]) | selectivity ratio μ/κ (KOR [9]) | other results
1 | CN(C(=O)/C=C/c1ccco1)[C@H]1CC[C@@]2(O)[C@H]3Cc4ccc(O)c5c4[C@@]2(CCN3CC2CC2)[C@H]1O5.Cl [Compound 21, 17-Cyclopropylmethyl-3,14β-dihydroxy-4,5α-epoxy-6α-[(2E)-3′-(furan-2″-yl)-N-methylprop-2-enamido]morphinan Hydrochloride] | > 2 h | < 5.8 µL/min/mg | 3 h | approximately 30 min | > 3 h | significant decrease in vertical counts at the largest dose tested | did not result in average speeds significantly different from vehicle at any time point | 0.58 ± 0.17 nM | low efficacy MOR partial agonism | 19.7 ± 0.7% | 0.93 ± 0.21 nM | antagonized | not antagonized by β-FNA | antagonized | seemed to compound the decrease | no dose maintained a significant number of infusions earned above saline | 0.14 ± 0.02 nM | subnanomolar | 7 | 1 | duration of action (male Swiss Webster mice [2]; 0.1 mg/kg s.c.): 3 h; radioligand binding affinity (Ki, nM) DOR (DOR [5]; [3H]diprenorphine, hDOR-CHO membranes): subnanomolar; half-life at 1 h, 1 µM (in vitro [7]): 1.16 h; microsomal CLint at 1 h, 1 µM (in vitro [7]): 10.1 µL/min/mg; Selectivity Ratio MOR/KOR (KOR [9]; supplement csv): 1.43; Ki (MOR [10]): 0.2 ± 0.02 nM; radioligand binding affinity (Ki, nM) MOR (MOR [10]): subnanomolar; ED50 (male Swiss Webster mice [11]): 0.051 mg/kg; ED75 (male Swiss Webster mice [11]): 0.1 mg/kg; percent MPE (male Swiss Webster mice [11]): ≥ 80%; EC50 (DOR [12]): 1.28 ± 0.28 nM; Emax (DOR [12]): > 80%; EC50 (KOR [13]): 0.04 nM; Emax (KOR [13]): 107 ± 2.6%
2 | CN(C(=O)/C=C/c1ccco1)[C@@H]1CC[C@@]2(O)[C@H]3Cc4ccc(O)c5c4[C@@]2(CCN3CC2CC2)[C@H]1O5.Cl [Compound 23, 17-Cyclopropylmethyl-3,14β-dihydroxy-4,5α-epoxy-6β-[(2E)-3′-(furan-2″-yl)-N-methylprop-2-enamido]morphinan Hydrochloride] | > 2 h | < 5.8 µL/min/mg | 6 h | approximately 30 min | > 3 h | dose-dependent decrease in locomotor activity across all end points | significantly different from vehicle | 5.31 ± 0.53 nM | low efficacy MOR partial agonism | 14.2 ± 1.77% | 7.93 ± 1.02 nM | slight, nonsignificant decrease | not antagonized by β-FNA | antagonized by NTI | enhanced antagonism | no dose maintained a significant number of infusions earned above saline | 0.22 ± 0.03 nM | subnanomolar | 36 | 4 | antinociceptive effects significant until (time postinjection) (male Swiss Webster mice [2]; 0.05 mg/kg s.c.): 3 h; duration of action (male Swiss Webster mice [2]; 0.5 mg/kg s.c.): 3 h; half-life (in vitro [7]): > 2 h; microsomal CLint (in vitro [7]): < 5.8 µL/min/mg; Ki (MOR [10]): 0.78 ± 0.05 nM; radioligand binding affinity (Ki, nM) MOR (MOR [10]): subnanomolar; ED50 (male Swiss Webster mice [11]): 0.01 mg/kg; ED75 (male Swiss Webster mice [11]): 0.05 mg/kg; percent MPE (male Swiss Webster mice [11]): ≥ 80%; EC50 (DOR [12]): 16.4 ± 3.25 nM; Emax (DOR [12]): > 80%; EC50 (KOR [13]): 0.14 ± 0.02 nM; Emax (KOR [13]): 106.5 ± 0.7%
